Assay: In vivo local sequestration at the injection site by serial scintigrams (intramuscular or intratumoral injection)
Parameters: species or system Fischer rats
Experimental: To further study the localization of unsealed radiopharmaceuticals after injection, in vivo imaging studies were carried out comparing ^111In DTPA (In-DTPA) (negative control) and Indium-111-Iron Macroaggregate (^111In-IMA) (positive control) to ^111In—Cl. ^111In emits gamma rays that can be detected using a gamma camera. ^111In-IMA was generated according to methods disclosed in U.S. Ser. No. 10/724,027, incorporated herein by reference. Each radiopharmaceutical was administered by intramuscular injection into the thigh muscle of Fischer rats which weighed approximately 200 grams. Two different doses of ^111In—Cl were administered to the rats, 0.4 and 0.8 mCi in 0.2 ml saline. Distribution of the ^111In—Cl was determined through serial scintigrams. […] In comparison, when ^111In-IMA was administered to rats, consistent retention (84%) of the ^111In-IMA was found 70 hours after administration (FIG. 8). Persistent intramuscular localization of ^111In—Cl was also found in rats for both dose levels of ^111In—Cl, with over 50% of the injected ^111In—Cl remaining in the injection site after three days.
To investigate whether the addition of free iron to radionuclides would increase the locoregional retention of various radionuclides, admixtures of ^67Ga-citrate, YCl3, or ^111In—Cl, were prepared with FeCl3.6H2O at 1-5 mg Fe/ml. Each radionuclide combination/admixture was administered either by intramuscular (IM) injection into the thigh muscle of the left leg (0.1-1.0 mCi) or by intratumoral (IT) injection into a tumor in the right leg (0.4-5.0 mCi) of Fischer rats. Distribution of the radionuclide was determined through serial scintigrams. Whole body images were acquired with a Siemens M-CAM camera using respective photo peaks of Ga-67, Tl-201 (for Y-90), or In-111, and 15-20% windows in photo energy. The typical imaging time was 0.5 to 5 minutes. A respective standard was present in the field of view (0.1-0.5 mCi), and used for image quantification by comparing images with the standard and normalizing the initial injection time as 100%. The Fe content in each combination/admixture was 1 mg in the total injectate.

## [Cl][90Y]([Cl])[Cl] [YCl3, Yttrium-90 chloride]
Admixture with FeCl3.6H2O, intramuscular or intratumoral injection
  retention time with free iron: Increase in the retention time
Intramuscular injection in rats, without free iron, FIG. 15
  time over which cleared from the injection site: approximately 20 hours
Intramuscular injection, without free iron
  retention in the injection site: not locally sequestered

Reference: US8329141B2, “Locoregional internal radionuclide ablation of abnormal tissues” (Board of Regents, The University of Texas System, priority 2004, dated 2012)
